The values below are quoted from earlier work in PMC4386841 (Journal of the American Chemical Society, 2015).

By IC50 is commonly meant the concentration that gives 50% inhibition. One may read the Ki as the dissociation constant of the complex between target and ligand, obtained from inhibition or displacement.

Read-outs that look alike come from different tables or passages of the source.

Regarding `COC(=O)C[C@H]1CC(c2ccc(O)cc2)=NO1` [(R)-ISO-1], the half-inhibitory concentration (IC50) in the data set on MIF (DOPA as substrate) is […]; with MIF (independent assay using DOPA), […].

In the case of `O=c1c(-c2ccc(O)c(O)c2)coc2cc(O)ccc12` [Orita-13, 3-(3,4-dihydroxyphenyl)-7-hydroxy-4H-chromen-4-one], the Ki on MIF (dopachrome assay) is 38 nM.

`CN1C(C(=O)Nc2ccccn2)=C(O)c2ccccc2S1(=O)=O` [Piroxicam]: the “Aqueous solubility, literature value” is 5.9 µg/mL.
